Laboratory results: patent US12486290B2, “Isoindolinone and indazole compounds for the degradation of EGFR” (C4 THERAPEUTICS, INC., priority 2019, dated 2025)

Experiments:
[1] = target: T1, EGFR L858R (NCI-H3255 cells) (Homo sapiens, UniProt P00533, L858R); test: EGFR (L858R) degradation analysis, Total EGFR (L858R) HTRF, NCI-H3255 cells; type: cell-based; details: 6 hours
T1 construct: NCI-H3255 (harboring EGFR heterozygous L858R mutation); host or cells: NCI-H3255
Description: (§1) NCI-H1975 (harboring EGFR heterozygous T790M/L858R mutations) and NCI-H3255 (harboring EGFR heterozygous L858R mutation) were purchased from ATCC and NCI, respectively. NCI-H1975+CS (harboring EGFR heterozygous T/790M/L858R/C797S mutations) was generated using CRISPR technology to introduce the additional C797S mutation by Horizon Discovery. RPMI 1640 no-phenol red medium and fetal bovine serum (FBS) were purchased from Gibco (Grand Island, NY, USA). Cell culture flasks and 384-well microplates were acquired from VWR (Radnor, PA, USA). Total EGFR (L858R) HTRF assay kits were purchased from Cisbio (Bedford, MA, USA).
(§2) Degradation of EGFR protein containing L858R mutation was determined based on quantification of FRET signal using Total EGFR (L858R) HTRF assay kit. Test compounds were added to the 384-well plate from a top concentration of 10 μM with 11 points, half log titration in duplicates. NCI-H1975, NCI-H1975+CS or NCI-H3255 cells were added into 384-well plates at a cell density of 10000, 10000 or 1000 cells per well, respectively. The plates were kept at 37° C. with 5% CO2 for 6 hours. Cells treated in the absence of the test compound were the negative control. Positive control was set by wells containing all reagents but no cells. FRET signal was acquired on EnVision™ Multilabel Reader (PerkinElmer, Santa Clara, CA, USA).

[2] = target: T2, EGFR T790M/L858R (NCI-H1975 cells) (Homo sapiens, UniProt P00533, L858R/T790M); test: EGFR (L858R) degradation analysis, Total EGFR (L858R) HTRF, NCI-H1975 cells; type: cell-based; details: 6 hours
T2 construct: NCI-H1975 (harboring EGFR heterozygous T790M/L858R mutations); host or cells: NCI-H1975
T2 sequence (P00533 25-1210 T790M/L858R): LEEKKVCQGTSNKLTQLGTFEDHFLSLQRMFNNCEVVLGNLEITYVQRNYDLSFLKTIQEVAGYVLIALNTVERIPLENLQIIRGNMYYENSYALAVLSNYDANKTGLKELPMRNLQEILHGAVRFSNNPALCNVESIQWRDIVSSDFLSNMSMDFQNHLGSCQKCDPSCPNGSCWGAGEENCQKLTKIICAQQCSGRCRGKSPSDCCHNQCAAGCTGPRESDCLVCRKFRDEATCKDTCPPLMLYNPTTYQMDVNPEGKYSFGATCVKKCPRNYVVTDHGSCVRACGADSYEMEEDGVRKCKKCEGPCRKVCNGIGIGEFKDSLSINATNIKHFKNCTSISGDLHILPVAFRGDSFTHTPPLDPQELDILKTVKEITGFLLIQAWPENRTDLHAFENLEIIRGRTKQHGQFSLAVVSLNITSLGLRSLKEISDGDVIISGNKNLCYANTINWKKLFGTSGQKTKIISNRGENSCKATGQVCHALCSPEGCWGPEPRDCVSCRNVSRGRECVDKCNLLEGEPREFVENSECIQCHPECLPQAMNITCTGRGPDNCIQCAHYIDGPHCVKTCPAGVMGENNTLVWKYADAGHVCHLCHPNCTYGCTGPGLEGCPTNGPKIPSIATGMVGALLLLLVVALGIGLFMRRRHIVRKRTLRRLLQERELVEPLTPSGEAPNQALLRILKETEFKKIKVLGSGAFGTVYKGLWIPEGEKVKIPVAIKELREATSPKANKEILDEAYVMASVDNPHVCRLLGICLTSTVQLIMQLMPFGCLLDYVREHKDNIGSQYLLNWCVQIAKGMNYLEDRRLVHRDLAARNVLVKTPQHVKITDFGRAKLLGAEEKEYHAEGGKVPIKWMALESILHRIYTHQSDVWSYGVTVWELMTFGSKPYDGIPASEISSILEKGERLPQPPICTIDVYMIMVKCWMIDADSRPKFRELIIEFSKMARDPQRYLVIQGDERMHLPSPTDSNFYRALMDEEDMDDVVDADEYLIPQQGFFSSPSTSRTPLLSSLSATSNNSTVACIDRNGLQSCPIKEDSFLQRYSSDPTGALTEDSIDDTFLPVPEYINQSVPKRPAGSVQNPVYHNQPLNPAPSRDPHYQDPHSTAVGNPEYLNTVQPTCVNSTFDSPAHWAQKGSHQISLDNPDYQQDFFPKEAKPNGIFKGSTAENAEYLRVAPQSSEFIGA
Description: as §1, §2

T1 sequence (P00533 25-1210 L858R): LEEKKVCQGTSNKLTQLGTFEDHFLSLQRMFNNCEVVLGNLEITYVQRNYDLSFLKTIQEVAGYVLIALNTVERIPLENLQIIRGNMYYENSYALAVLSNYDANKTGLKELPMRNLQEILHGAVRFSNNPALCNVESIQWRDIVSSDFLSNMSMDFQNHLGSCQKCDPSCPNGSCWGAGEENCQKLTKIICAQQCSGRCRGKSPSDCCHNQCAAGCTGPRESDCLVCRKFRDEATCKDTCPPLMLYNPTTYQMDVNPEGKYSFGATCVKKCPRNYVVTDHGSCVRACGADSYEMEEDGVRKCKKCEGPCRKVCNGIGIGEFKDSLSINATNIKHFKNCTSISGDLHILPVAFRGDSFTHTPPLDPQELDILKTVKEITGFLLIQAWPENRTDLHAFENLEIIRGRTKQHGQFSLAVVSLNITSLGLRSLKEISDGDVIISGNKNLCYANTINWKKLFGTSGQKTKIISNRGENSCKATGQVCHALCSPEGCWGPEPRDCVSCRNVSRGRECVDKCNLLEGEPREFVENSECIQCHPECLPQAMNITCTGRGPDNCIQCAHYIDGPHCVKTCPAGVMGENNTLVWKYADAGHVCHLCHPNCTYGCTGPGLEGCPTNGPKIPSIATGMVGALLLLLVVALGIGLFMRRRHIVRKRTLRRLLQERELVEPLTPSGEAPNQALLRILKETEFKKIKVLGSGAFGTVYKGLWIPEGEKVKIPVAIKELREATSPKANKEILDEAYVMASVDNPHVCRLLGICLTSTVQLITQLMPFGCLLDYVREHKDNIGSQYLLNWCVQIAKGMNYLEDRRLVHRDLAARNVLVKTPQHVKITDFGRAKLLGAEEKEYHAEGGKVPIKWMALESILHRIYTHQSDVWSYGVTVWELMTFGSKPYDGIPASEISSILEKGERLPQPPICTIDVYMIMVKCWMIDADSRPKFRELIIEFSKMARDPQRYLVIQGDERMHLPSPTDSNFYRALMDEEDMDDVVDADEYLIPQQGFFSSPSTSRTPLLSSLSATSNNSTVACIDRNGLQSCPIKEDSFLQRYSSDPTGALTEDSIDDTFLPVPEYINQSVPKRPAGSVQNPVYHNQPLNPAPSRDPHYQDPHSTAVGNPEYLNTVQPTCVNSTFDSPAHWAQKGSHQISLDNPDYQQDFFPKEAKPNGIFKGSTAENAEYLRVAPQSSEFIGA

DC50 [1] [µM]	DC50 [2] [µM]	SMILES
0.019	0.021	O=C1CCC(Nc2ccc(C3CCN(C(=O)CN4CCN(c5ccc(-c6cc(F)c7c(c6)C(=O)N(C(C(=O)Nc6nccs6)c6ncn8c6CCC8)C7)cc5)CC4)CC3)cc2)C(=O)N1 (stereo not drawn) [Compound 10, 2-(6,7-dihydro-5H-pyrrolo[1,2-c]imidazol-1-yl)-2-(6-(4-(4-(2-(4-(4-((2,6-dioxopiperidin-3-yl)amino)phenyl)piperidin-1-yl)-2-oxoethyl)piperazin-1-yl)phenyl)-4-fluoro-1-oxoisoindolin-2-yl)-N-(thiazol-2-yl)acetamide]
0.015	0.031	O=C1CC[C@H](Nc2ccc(C3CCN(CC(=O)N4CCC(c5ccc(-c6cc(F)c7c(c6)C(=O)N(C(C(=O)Nc6nccs6)c6ncn8c6CCC8)C7)cc5)CC4)CC3)cc2)C(=O)N1 (stereo partly drawn) [Compound 22, 2-(6,7-dihydro-5H-pyrrolo[1,2-c]imidazol-1-yl)-2-(6-(4-(1-(2-(4-(4-(((S)-2,6-dioxopiperidin-3-yl)amino)phenyl)piperidin-1-yl)acetyl)piperidin-4-yl)phenyl)-4-fluoro-1-oxoisoindolin-2-yl)-N-(thiazol-2-yl)acetamide]
0.017	0.016	O=C1CC[C@H](Nc2ccc(C3CCN(CC(=O)N4CCC(n5cc(-c6cc(F)c7c(c6)C(=O)N(C(C(=O)Nc6nccs6)c6ncn8c6CCC8)C7)cn5)CC4)CC3)cc2)C(=O)N1 (stereo partly drawn) [Compound 28, 2-(6,7-dihydro-5H-pyrrolo[1,2-c]imidazol-1-yl)-2-[6-[1-[1-[2-[4-[4-[[(3S)-2,6-dioxo-3-piperidyl]amino]phenyl]-1-piperidyl]acetyl]-4-piperidyl]pyrazol-4-yl]-4-fluoro-1-oxo-isoindolin-2-yl]-N-thiazol-2-yl-acetamide]
0.02	0.024	O=C1CC[C@H](Nc2ccc(C3CCN(CC(=O)N4CCC(c5cnn(-c6cc(F)c7c(c6)C(=O)N(C(C(=O)Nc6nccs6)c6ncn8c6CCC8)C7)c5)CC4)CC3)cc2)C(=O)N1 (stereo partly drawn) [Compound 29, 2-(6,7-dihydro-5H-pyrrolo[1,2-c]imidazol-1-yl)-2-[6-[4-[1-[2-[4-[4-[[(3S)-2,6-dioxo-3-piperidyl]amino]phenyl]-1-piperidyl]acetyl]-4-piperidyl]pyrazol-1-yl]-4-fluoro-1-oxo-isoindolin-2-yl]-N-thiazol-2-yl-acetamide]
0.035	0.015	O=C1CC[C@H](Nc2ccc(C3CCN(CC(=O)N4CCC(n5cc(-c6cc(F)c7c(c6)C(=O)N(C(C(=O)Nc6nccs6)c6ncn8c6CCC8)C7)nn5)CC4)CC3)cc2)C(=O)N1 (stereo partly drawn) [Compound 30, 2-(6,7-dihydro-5H-pyrrolo[1,2-c]imidazol-1-yl)-2-(6-(1-(1-(2-(4-(4-(((S)-2,6-dioxopiperidin-3-yl)amino)phenyl)piperidin-1-yl)acetyl)piperidin-4-yl)-1H-1,2,3-triazol-4-yl)-4-fluoro-1-oxoisoindolin-2-yl)-N-(thiazol-2-yl)acetamide]
0.014	0.02	O=C1CCC(Nc2ccc(C3CCN(CC(=O)N4CCN(Cc5ccc(-c6cc(F)c7c(c6)C(=O)N(C(C(=O)Nc6nccs6)c6ncn8c6CCC8)C7)cc5)CC4)CC3)cc2)C(=O)N1 (stereo not drawn) [Compound 56, 2-(6,7-dihydro-5H-pyrrolo[1,2-c]imidazol-1-yl)-2-[6-[4-[[4-[2-[4-[4-[(2,6-dioxo-3-piperidyl)amino]phenyl]-1-piperidyl]acetyl]piperazin-1-yl]methyl]phenyl]-4-fluoro-1-oxo-isoindolin-2-yl]-N-thiazol-2-yl-acetamide]

The remaining lines, values behind:

SMILES	DC50 [1] [µM]	DC50 [2] [µM]
O=C1CCC(Nc2ccc(C3CCN(CC(=O)N4CCN(c5ccc(-c6cc(F)c7c(c6)C(=O)N(C(C(=O)Nc6nccs6)c6ncn8c6CCC8)C7)cc5)CC4)CC3)nc2)C(=O)N1 (stereo not drawn) [Compound 11, 2-(6,7-dihydro-5H-pyrrolo[1,2-c]imidazol-1-yl)-2-[6-[4-[4-[2-[4-[5-[(2,6-dioxo-3-piperidyl)amino]-2-pyridyl]-1-piperidyl]acetyl]piperazin-1-yl]phenyl]-4-fluoro-1-oxo-isoindolin-2-yl]-N-thiazol-2-yl-acetamide]	0.021	0.02
O=C1CCC(Nc2ccc(C3CCN(CC(=O)N4CCN(c5ccc(-c6cc(F)c7c(c6)C(=O)N(C(C(=O)Nc6nccs6)c6ncn8c6CCC8)C7)cc5)CC4)CC3)c(F)c2)C(=O)N1 (stereo not drawn) [Compound 12, 2-(6,7-dihydro-5H-pyrrolo[1,2-c]imidazol-1-yl)-2-[6-[4-[4-[2-[4-[4-[(2,6-dioxo-3-piperidyl)amino]-2-fluoro-phenyl]-1-piperidyl]acetyl]piperazin-1-yl]phenyl]-4-fluoro-1-oxo-isoindolin-2-yl]-N-thiazol-2-yl-acetamide]	0.011	0.039
O=C1CC[C@H](Nc2ccc(C3CCN(CC(=O)N4CCN(c5ccc(-c6cc(F)c7c(c6)C(=O)N(C(C(=O)Nc6nccs6)c6ncn8c6CCC8)C7)cn5)CC4)CC3)c(F)c2)C(=O)N1 (stereo partly drawn) [Compound 27, 2-(6,7-dihydro-5H-pyrrolo[1,2-c]imidazol-1-yl)-2-[6-[6-[4-[2-[4-[4-[[(3S)-2,6-dioxo-3-piperidyl]amino]-2-fluoro-phenyl]-1-piperidyl]acetyl]piperazin-1-yl]-3-pyridyl]-4-fluoro-1-oxo-isoindolin-2-yl]-N-thiazol-2-yl-acetamide]	0.02	0.036
O=C1CCC(Nc2ccc(C3CCN(C(=O)C(=O)N4CCC(Oc5ccc(-c6cc(F)c7c(c6)C(=O)N(C(C(=O)Nc6nccs6)c6ncn8c6CCC8)C7)cc5)CC4)CC3)cc2)C(=O)N1 (stereo not drawn) [Compound 40, 2-(6,7-dihydro-5H-pyrrolo[1,2-c]imidazol-1-yl)-2-[6-[4-[[1-[2-[4-[4-[(2,6-dioxo-3-piperidyl)amino]phenyl]-1-piperidyl]-2-oxo-acetyl]-4-piperidyl]oxy]phenyl]-4-fluoro-1-oxo-isoindolin-2-yl]-N-thiazol-2-yl-acetamide]	0.014	0.021
Cn1nc(N2CCC(=O)NC2=O)c2ccc(C3CCN(CC(=O)N4CCN(c5ccc(-c6cc(F)c7c(c6)C(=O)N(C(C(=O)Nc6nccs6)c6ncn8c6C[C@@H](F)C8)C7)cc5)CC4)CC3)cc21 (stereo partly drawn) [Compound 45, 2-[6-[4-[4-[2-[4-[3-(2,4-dioxohexahydropyrimidin-1-yl)-1-methyl-indazol-6-yl]-1-piperidyl]acetyl]piperazin-1-yl]phenyl]-4-fluoro-1-oxo-isoindolin-2-yl]-2-[(6R)-6-fluoro-6,7-dihydro-5H-pyrrolo[1,2-c]imidazol-1-yl]-N-thiazol-2-yl-acetamide]	0.016	0.014
O=C1CC[C@H](Nc2ccc(C3CCN(CC(=O)N4CC5(CCN(c6ccc(-c7cc(F)c8c(c7)C(=O)N(C(C(=O)Nc7nccs7)c7ncn9c7CCC9)C8)cc6)CC5)C4)CC3)c(F)c2)C(=O)N1 (stereo partly drawn) [Compound 46, 2-(6,7-dihydro-5H-pyrrolo[1,2-c]imidazol-1-yl)-2-(6-(4-(2-(2-(4-(4-(((S)-2,6-dioxopiperidin-3-yl)amino)-2-fluorophenyl)piperidin-1-yl)acetyl)-2,7-diazaspiro[3.5]nonan-7-yl)phenyl)-4-fluoro-1-oxoisoindolin-2-yl)-N-(thiazol-2-yl)acetamide]	0.051	0.051
Cn1nc(N2CCC(=O)NC2=O)c2ccc(C3CCN(CC(=O)N4CC5(C4)CN(c4ccc(-c6cc(F)c7c(c6)C(=O)N(C(C(=O)Nc6nccs6)c6ncn8c6CCC8)C7)cc4)C5)CC3)cc21 (stereo not drawn) [Compound 49, 2-(6,7-dihydro-5H-pyrrolo[1,2-c]imidazol-1-yl)-2-[6-[4-[2-[2-[4-[3-(2,4-dioxohexahydropyrimidin-1-yl)-1-methyl-indazol-6-yl]-1-piperidyl]acetyl]-2,6-diazaspiro[3.3]heptan-6-yl]phenyl]-4-fluoro-1-oxo-isoindolin-2-yl]-N-thiazol-2-yl-acetamide]	0.01	0.018
O=C1CC[C@H](Nc2ccc(C3CCN(CC(=O)N4CC5(C4)CN(c4ccc(-c6cc(F)c7c(c6)C(=O)N(C(C(=O)Nc6ccccn6)c6ncn8c6CCC8)C7)cc4)C5)CC3)c(F)c2)C(=O)N1 (stereo partly drawn) [Compound 53, 2-(6,7-dihydro-5H-pyrrolo[1,2-c]imidazol-1-yl)-2-[6-[4-[2-[2-[4-[4-[[(3S)-2,6-dioxo-3-piperidyl]amino]-2-fluoro-phenyl]-1-piperidyl]acetyl]-2,6-diazaspiro[3.3]heptan-6-yl]phenyl]-4-fluoro-1-oxo-isoindolin-2-yl]-N-(2-pyridyl)acetamide]	0.037	0.064
O=C1CC[C@H](Nc2ccc(C3CCN(CC(=O)N4CCC(Cc5ccc(-c6cc(F)c7c(c6)C(=O)N(C(C(=O)Nc6nccs6)c6ncn8c6CCC8)C7)cc5)CC4)CC3)c(F)c2)C(=O)N1 (stereo partly drawn) [Compound 60, 2-(6,7-dihydro-5H-pyrrolo[1,2-c]imidazol-1-yl)-2-[6-[4-[[1-[2-[4-[4-[[(3S)-2,6-dioxo-3-piperidyl]amino]-2-fluoro-phenyl]-1-piperidyl]acetyl]-4-piperidyl]methyl]phenyl]-4-fluoro-1-oxo-isoindolin-2-yl]-N-thiazol-2-yl-acetamide]	0.028	0.052
